We go through 40 compounds from ChEMBL document CHEMBL1201862, “PubChem BioAssay data set” (2004).

Among the test systems are M19-MEL; RXF 631; KM-20L2; DMS-114; LXFL 529; BT-549; T47D; DU-145; MDA-N.
Holding throughout (experiment): NCI anticancer screen, dose series, 48 h

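Exposure lasted 48 hours, with cells grown in 96-well plates and compounds tested at five concentrations. Here, GI50 denotes the concentration required for 50% inhibition of growth.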 The source made the active and inactive calls. Cut-off read from the data, not from the text of the source: active = GI50 up to about 1.1 µM and inactive = higher. Bounds are passed on as bounds.

With `COc1ccc(OC)c(NCC#N)c1`, the GI50 in the experiment with M19-MEL, in the experiment with RXF 631, in the experiment with KM-20L2 and in the experiment on DMS-114 was > 100 µM (inactive) throughout.
With `CC(=O)OCC1=C(CCC#N)N2C(=O)C(NC(=O)Cc3cccs3)C2[S+]([O-])C1` (configuration not stated), the GI50 in the experiment with M19-MEL, with KM-20L2 and with DMS-114 was > 100 µM (inactive) each time.
Take `CC1CC2OC(=O)C3CC(O)CC(=C23)[C@@]12C[C@@H](c1ccoc1)OC2=O` (some centres not stated): the GI50 in the experiment with M19-MEL, in the experiment on LXFL 529 and in the experiment with KM-20L2 was > 100 µM (inactive) each time.
Take `CC(=O)OCCOCNC(=S)N/N=C/c1cc([N+](=O)[O-])ccc1O`: the GI50 is > 100 µM (inactive) in the experiment with M19-MEL; > 100 µM (inactive) with RXF 631; 93.8 µM (inactive) in the experiment with LXFL 529; 61.1 µM (inactive) with KM-20L2; 30.7 µM (inactive) with DMS-114.
On to `Cc1nc(=O)n2c(c1C(=O)Nc1ccc(Cl)cc1)NCCC2`, for which the GI50 in the experiment with M19-MEL, in the experiment with LXFL 529 and in the experiment on DMS-114 was > 100 µM (inactive) throughout.
For `Ic1cc2c(cc1C1SCCCS1)OCO2`, the GI50 with M19-MEL, in the experiment on RXF 631, with LXFL 529, with KM-20L2 and with DMS-114 was > 100 µM (inactive) throughout.
`C=CCC1[C@@H](C(C)(C)C(C(C)=O)C(=O)C(=O)OC)OC(C(C)(C)C)N1C(=O)OC` (some centres not stated): the GI50 with M19-MEL, with RXF 631 and with KM-20L2 was > 100 µM (inactive) throughout.
With `NC(=O)c1csc(C2OC(CO)C(O)C2O)n1` (configuration not stated), the GI50 in the experiment with BT-549 was 885 µM (inactive); in the experiment with T47D it was 2790 µM (inactive); in the experiment with DU-145, 179 µM (inactive); with M19-MEL, 29 µM (inactive); in the experiment with MDA-N, 35.1 µM (inactive); with KM-20L2, 43.8 µM (inactive). Besides, the GI50 in the experiment with DMS-114 was 61.1 µM (inactive).
On to `Cc1cccc2c1Oc1cc(Cl)ccc1C2NC(=O)CN(C)C` (configuration not stated), for which the GI50 in the experiment with M19-MEL is 20.9 µM (inactive); with LXFL 529, 57.4 µM (inactive); in the experiment on KM-20L2, 20 µM (inactive); in the experiment on DMS-114, 34.9 µM (inactive).
Turning to `O=c1oc2c3ccc4ccccc4c3n(CCN3CCCCC3)c2c2ccccc12`, the GI50 in the experiment with M19-MEL was 25.6 µM (inactive); in the experiment on RXF 631 it was 24.6 µM (inactive); with LXFL 529 it was 43.9 µM (inactive); in the experiment with KM-20L2, > 61 µM (inactive); in the experiment on DMS-114, > 76 µM (inactive).
Consider `O=C1C(c2ccccc2)=[N+]([O-])c2cc([N+](=O)[O-])c(/C(Cl)=C/c3ccccc3)cc21`, for which the GI50 in the experiment with M19-MEL is 15.3 µM (inactive); in the experiment with RXF 631 it was 6.7 µM (inactive); in the experiment with LXFL 529 it was > 10 µM (inactive); with DMS-114, 8.97 µM (inactive).
Consider `CC1C(=O)N(C)C2(CO)C(=O)O[C@H](C)C12O` (some centres not stated), for which the GI50 in the experiment on M19-MEL and with DMS-114 was > 100 µM (inactive) throughout.
`C=CCCC12CCCC(=O)C1Sc1ccc3ccccc3c12` (configuration not stated): the figures for the GI50 with M19-MEL, in the experiment on RXF 631 and in the experiment on LXFL 529 were 24.1 µM (inactive), 11.6 µM (inactive) and 15.2 µM (inactive), respectively.
Turning to `CC1(C(=O)O)CCOc2ccccc21` (configuration not stated), the GI50 in the experiment on M19-MEL, with LXFL 529, in the experiment with KM-20L2 and with DMS-114 was > 100 µM (inactive) each time.
As to `Cc1ccccc1NC(=O)CSc1nnc(-c2ccc(/N=C\c3ccc(Cl)cc3)cc2)o1`, the GI50 in the experiment on M19-MEL, in the experiment with LXFL 529, in the experiment with KM-20L2 and in the experiment on DMS-114 was > 100 µM (inactive) each time.
For the compound `CC(C)CCC[C@@H](C)[C@H]1CC[C@H]2[C@@H]3CC=C4CC(OCCCCN(O)CCCSC5OC(CO)C(O)C(O)C5O)CC[C@]4(C)[C@H]3CC[C@]12C` (some centres not stated), the GI50 with M19-MEL was > 100 µM (inactive); with LXFL 529, 23 µM (inactive); in the experiment with KM-20L2 it was > 100 µM (inactive); with DMS-114, 25.5 µM (inactive).
As for `CCC12C=CCN3CC[C@]4(C(=C(C(=O)OC)[C@@H]1Nc1ncnc5c1ncn5C1OC(COC(C)=O)C(OC(C)=O)C1OC(C)=O)Nc1ccccc14)C32` (some centres not stated), the GI50 in the experiment with M19-MEL is 1.99 µM (inactive); in the experiment on LXFL 529, 2.4 µM (inactive); in the experiment with KM-20L2 it was 2.71 µM (inactive); with DMS-114 it was 1.91 µM (inactive).
In the case of `COc1ccc(Cc2nc3cc(Cl)ccc3o2)cc1`, the GI50 in the experiment with BT-549 is 19.4 µM (inactive); in the experiment on T47D, 21.3 µM (inactive); in the experiment with DU-145 it was 38.8 µM (inactive); in the experiment on MDA-N it was 35 µM (inactive).
The like results for `Clc1ccc(C(c2ccc(Cl)cc2)N2CCNCC2)cc1` were, in that order, 16.9 µM (inactive), 2.04 µM (inactive), 2.47 µM (inactive) and 1.89 µM (inactive).
As to `O=C1CC2OCC=C3CN4CCC5(C(=O)O)C(N1)C2C3CC45` (configuration not stated), the GI50 in the experiment on BT-549, with T47D, in the experiment on DU-145 and with MDA-N was > 100 µM (inactive) throughout.
Regarding `Cc1cc(C)n(C2OC(CO)C(O)C(O)C2O)c(=S)c1C#N` (configuration not stated), the GI50 with BT-549, with T47D, in the experiment on DU-145 and in the experiment with MDA-N was > 100 µM (inactive) throughout.
Consider `O=C1OC[C@H]2[C@@H]1[C@H]1O[C@@H]2C2=C(CCC2)C1=O`, for which the GI50 with BT-549, with T47D, in the experiment on DU-145 and in the experiment with MDA-N was > 100 µM (inactive) throughout.
For `Cc1ccc([N+](=O)[O-])cc1NC(=O)C(=O)Cc1cc(=O)oc2cc(O)ccc12`, the GI50 in the experiment with M19-MEL is > 100 µM (inactive); in the experiment on LXFL 529, 56.5 µM (inactive); in the experiment on KM-20L2 it was 63.7 µM (inactive); with DMS-114, 18.5 µM (inactive).
In the case of `Cc1c(Cl)cccc1NC(=O)CC1C(=O)Nc2ccccc2S1(=O)=O` (configuration not stated), the GI50 was 20.4 µM (inactive) with M19-MEL, 15.3 µM (inactive) in the experiment with LXFL 529, 22.4 µM (inactive) in the experiment with KM-20L2 and 16.5 µM (inactive) in the experiment on DMS-114.
On to `Cl[Si]1(Cl)Oc2ccccc2O[Si](Cl)(Cl)Oc2ccccc2O1`, for which the GI50 in the experiment on M19-MEL is 12 µM (inactive); with RXF 631, 7.78 µM (inactive); with KM-20L2, 27.1 µM (inactive); with DMS-114 it was 1.88 µM (inactive).
On to `CC1CN=C(Nc2ccccc2)S1` (configuration not stated), for which the GI50 in the experiment with BT-549, with T47D, in the experiment with DU-145 and in the experiment with MDA-N was > 100 µM (inactive) each time.
In the case of `COc1cc2c(c(OC)c1OC)-c1ccc(SC)c(=O)cc1[C@@H](NC(=O)c1ccc(C#N)cc1)CC2`, the GI50 in the experiment on M19-MEL, in the experiment with LXFL 529, in the experiment on KM-20L2 and with DMS-114 was < 0.01 µM (active) each time.
Take `Cc1ccc(SCN2CCCCC2)cc1.O=C(Cl)c1ccc([N+](=O)[O-])cc1`: the GI50 was 1.9 µM (inactive) with BT-549, 12.2 µM (inactive) in the experiment with T47D, 13.7 µM (inactive) with DU-145 and 6.25 µM (inactive) in the experiment with MDA-N.
In the same order, the values of `CC1OC(OC2C(O[C@H]3CC[C@@]4(C)C(=CC[C@H]5[C@@H]6C[C@@H]7O[C@]8(CC[C@@H](CO)CO8)[C@@H](C)[C@@H]7[C@@]6(C)CC[C@@H]54)C3)OC(CO)C(O)C2OC2OC(CO)C(O)C(O)C2O)C(O)C(O)C1O` (some centres not stated) are > 10 µM (inactive), 1.87 µM (inactive), 1.84 µM (inactive) and 1.68 µM (inactive).
As for `Cc1ccc(N(C)S(=O)(=O)c2ccccc2)cc1`, the GI50 in the experiment with BT-549 was 61 µM (inactive); in the experiment with T47D, 47.9 µM (inactive); in the experiment on DU-145 it was > 100 µM (inactive); with MDA-N, > 100 µM (inactive).
Consider `CCCCCCCCCCCCOCCCCCCCCC/C=C/c1ccc2c(c1)OCCOCCOCCOCCO2`, for which the GI50 with BT-549 is 23.4 µM (inactive); in the experiment with T47D, 24.9 µM (inactive); in the experiment with DU-145 it was 33 µM (inactive); with MDA-N, 18.5 µM (inactive).
In the same order, the values of `CC(=O)Nc1ccc2c3c(cc(O)c2c1)N(C(=O)CCCCCC(=O)N1CC(CCl)c2c1cc(O)c1cc(NC(C)=O)ccc21)CC3CCl` (configuration not stated) are 0.0134 µM (active), < 0.01 µM (active), < 0.01 µM (active) and 0.0164 µM (active).
`CCN1CCC(O)(/C=C/c2ccc(Cl)cc2)C(C(=O)/C=C/c2ccc(Cl)cc2)C1` (configuration not stated): the GI50 in the experiment with M19-MEL was 29.9 µM (inactive); with LXFL 529, 14.7 µM (inactive); in the experiment on KM-20L2, 32.1 µM (inactive); in the experiment with DMS-114, 26.6 µM (inactive).
`COc1cc2c(c(OC)c1OC)-c1ccc(OC)c(=O)cc1[C@@H](N(C)C=O)CC2`: the figures for the GI50 in the experiment on RXF 631, in the experiment with LXFL 529 and in the experiment on KM-20L2 were 0.0244 µM (active), < 0.0184 µM (active) and 0.0133 µM (active), respectively.
As for `C[N+]1(C)C2Cc3ccccc3C1Cc1ccccc12`, the GI50 with BT-549 is > 100 µM (inactive); in the experiment on T47D, > 100 µM (inactive); with DU-145, > 100 µM (inactive); in the experiment on MDA-N, 78.2 µM (inactive).
For the compound `CC(C)(C)c1ccc(O)c(CN(Cc2cc(C(C)(C)C)ccc2O)c2ccccc2)c1`, the GI50 with BT-549 is 21 µM (inactive); in the experiment on T47D, 15.8 µM (inactive); in the experiment on DU-145, 19.1 µM (inactive); in the experiment with MDA-N it was 16.6 µM (inactive).
Turning to `CN(/N=C/c1cccc2cccnc12)c1ccc([N+](=O)[O-])cc1`, the GI50 with M19-MEL, with LXFL 529, in the experiment with KM-20L2 and in the experiment on DMS-114 was > 100 µM (inactive) in each case.
Turning to `C(=N\OCc1ccccc1)/c1ncccc1C1OCCO1`, the GI50 in the experiment with M19-MEL, with LXFL 529, with KM-20L2 and in the experiment on DMS-114 was > 100 µM (inactive) throughout.
Regarding `Clc1ccc(SCCSCCCCCCCCCCSCCSc2ccc(Cl)cc2)cc1`, the GI50 in the experiment on RXF 631, with KM-20L2 and with DMS-114 was > 100 µM (inactive) in each case.
With `CC1=C(CCC(C)CO)O[C@H]2C[C@H]3[C@@H]4CC[C@H]5C[C@@H](O)CC[C@]5(C)[C@H]4CC(=O)[C@]3(C)[C@@H]12` (some centres not stated), the GI50 is 16 µM (inactive) in the experiment with BT-549, 7.03 µM (inactive) in the experiment on T47D, 20.6 µM (inactive) with DU-145 and 15.6 µM (inactive) with MDA-N.
